This note sets out measurements from patent US8138146B2, “Antiviral peptide and antiviral agent” (priority 2006, dated 2012).

Like-named read-outs stand apart in the source and are kept apart here. No end group written: not given here.

Holding throughout (format): cell-based
The test system of data set [1] is HVT (turkey herpes virus). The experiment in a line: HVT multiplication suppression, plaque assay in CEF cells. The following applies: for Ratio (relative ratio of virus titer, no peptide = 1) / Titer: HVT FC-126 strain in CEF cells; for Titer: six days; for viral multiplication suppression effect (antiviral activity), in words: HVT in CEF cells, peptide 10, 50, 100 μM, number and size of plaques.

Data set [2] concerns MDV (Marek's disease virus). The following applies: for antiviral activity (viral multiplication suppression effect) against MDV, in words: MDV in CEF cells, peptide 50 and 100 μM; for Ratio / Titer: MDV type 1 Md5 strain in CEF cells; for Titer: four days.
Data set [3] concerns MDCK (Madrin Darby Canine Kidney) cell. The experiment in a line: Cytotoxicity control, MDCK cells without virus (Example 4). To be noted: 48 hours. Here is the method: The culture supernatant was removed from wells where a full sheet (monolayer) composed of MDCK cells was formed by the above culture. 2 mL of PBS was added to the wells and the wells were washed. This washing was repeated twice. Next, a viral solution prepared with MEM medium (no FBS added, containing 0.02% dextran and 1 μg/mL trypsin) so as to have 10^4 PFU/mL was used for inoculation at 0.1 mL per well, and culture was incubated in the presence of 5% CO2, at 34° C. for one hour, to adsorb the virus to the cells. After the incubation, was added 2 mL of MEM medium (no FBS added, containing 0.02% dextran and 1 μg/mL trypsin) containing the test peptide at a given concentration so as to have 50 μM and 10 μM final concentrations of peptide in each well after addition. Note that a well was prepared as a control plot (control), in which 2 mL of the above-mentioned MEM medium not containing peptide was added. In addition, as the control group for evaluating the cytotoxicity of the test peptide, 2 mL of MEM medium (no FBS added, containing 0.02% dextran and 1 μg/mL trypsin) containing the test peptide at a given concentration was added each to wells (with full sheet formed) containing MDCK cells to which the above-mentioned viral solution was not added (that is to say, not containing virus). Then incubation was carried out in the presence of 5% CO2 at 34° C. for 48 hours.

For the substance “LPPLERLTLD RQARRNRRRRWR-CONH2 (LPPLERLTLDRQARRNRRRRWR-NH2) [Sample 2, NES … on the N-terminal side, NLS … on the C-terminal side; 22 residues]”, the “Ratio (relative ratio of virus titer, no peptide = 1)” value in data set [1] (peptide 10 μM) amounted to 0.91; in data set [1] (peptide 50 μM) it was 0.59; in data set [1] (peptide 100 μM), 0.57. Moreover, the Titer is 8.0 × 10^4 PFU/mL in data set [1] (peptide 10 μM), 5.2 × 10^4 PFU/mL in data set [1] (peptide 50 μM) and 5.0 × 10^4 PFU/mL in data set [1] (peptide 100 μM).
In the case of “LPPLERLTLD-CONH2 (LPPLERLTLD-NH2) [Comparative Sample 2, reference compound]”, the “viral multiplication suppression effect (antiviral activity), in words” value in data set [1] was “no viral multiplication suppression effect”.
In the case of “RKKKRKV LALKAGLDI-CONH2 (RKKKRKVLALKAGLDI-NH2) [Sample 4, modified SV40 NLS plus modified mouse PKI NES with one leucine deleted; 16 residues]”, the “Ratio (relative ratio of virus titer, no peptide = 1)” value in data set [1] (peptide 10 μM) stood at 0.95; in data set [1] (peptide 50 μM), 0.47; in data set [1] (peptide 100 μM), 0.24. The Titer in data set [1] (peptide 10 μM) was 1.8 × 10^4 PFU/mL; in data set [1] (peptide 50 μM), 9.0 × 10^3 PFU/mL; in data set [1] (peptide 100 μM), 4.5 × 10^3 PFU/mL; in data set [2] (peptide 50 μM), 4.27 × 10^6 TCID50; in data set [2] (peptide 100 μM), 3.16 × 10^6 TCID50. Further, the “antiviral activity (viral multiplication suppression effect) against MDV, in words” value in data set [2] is reported as “satisfactory antiviral activity”. For the same substance, the results for the Ratio in data set [2] (peptide 50 μM) and in data set [2] (peptide 100 μM) were 0.63 and 0.47, respectively.
For “RKKKRKV-CONH2 (RKKKRKV-NH2) [Comparative Sample 4, reference compound]”, in data set [1], the “viral multiplication suppression effect (antiviral activity), in words” value is given as “no viral multiplication suppression effect”.
“RQARRNRRRRWR LPPLERLTLD-CONH2 (RQARRNRRRRWRLPPLERLTLD-NH2) [Sample 1, HIV REV-derived NLS on the N-terminal side, HIV-derived NES on the C-terminal side; 22 residues]”: the figures for the “Ratio (relative ratio of virus titer, no peptide = 1)” value in data set [1] (peptide 10 μM), in data set [1] (peptide 50 μM) and in data set [1] (peptide 100 μM) were 0.75, 0.25 and 0.13, respectively. Besides, the Titer in data set [1] (peptide 10 μM) is 7.8 × 10^4 PFU/mL; in data set [1] (peptide 50 μM), 2.6 × 10^4 PFU/mL; in data set [1] (peptide 100 μM), 1.4 × 10^4 PFU/mL; in data set [2] (peptide 50 μM), 2.40 × 10^6 TCID50; in data set [2] (peptide 100 μM), 6.76 × 10^5 TCID50. In addition, in data set [2], the “antiviral activity (viral multiplication suppression effect) against MDV, in words” value is reported as “satisfactory antiviral activity”. Moreover, the Ratio in data set [2] (peptide 50 μM) amounted to 0.36; in data set [2] (peptide 100 μM), 0.1.
Regarding “RQARRNRRRRWR-CONH2 (RQARRNRRRRWR-NH2) [Comparative Sample 1, reference compound]”, in data set [1], the “viral multiplication suppression effect (antiviral activity), in words” value is reported as “no viral multiplication suppression effect”.
As for “YGRKKRRQRRR-CONH2 (YGRKKRRQRRR-NH2) [Comparative Sample 3, reference compound]”, in data set [1], the “viral multiplication suppression effect (antiviral activity), in words” value was “no viral multiplication suppression effect”.
For “YGRKKRRQRRRLPPLERLTLD-NH2 [Sample 3, YGRKKRRQRRR LPPLERLTLD-CONH2]”, the cytotoxicity result in data set [3] is “no cytotoxicity was observed”.
